The values below come from patent US20250127778A1, “CANCER IMMUNOTHERAPY COMPOSITION CONTAINING INTERACTION INHIBITOR OF STING AND TRIM29 AS ACTIVE INGREDIENT” (SPARK BIOPHARMA, INC, priority 2021, published 2025).

In one test the target is T1, TRIM29 (Homo sapiens, UniProt Q14134).
T1 construct: endogenous in cells; host or cells: A431
T1 sequence (Q14134 1-588): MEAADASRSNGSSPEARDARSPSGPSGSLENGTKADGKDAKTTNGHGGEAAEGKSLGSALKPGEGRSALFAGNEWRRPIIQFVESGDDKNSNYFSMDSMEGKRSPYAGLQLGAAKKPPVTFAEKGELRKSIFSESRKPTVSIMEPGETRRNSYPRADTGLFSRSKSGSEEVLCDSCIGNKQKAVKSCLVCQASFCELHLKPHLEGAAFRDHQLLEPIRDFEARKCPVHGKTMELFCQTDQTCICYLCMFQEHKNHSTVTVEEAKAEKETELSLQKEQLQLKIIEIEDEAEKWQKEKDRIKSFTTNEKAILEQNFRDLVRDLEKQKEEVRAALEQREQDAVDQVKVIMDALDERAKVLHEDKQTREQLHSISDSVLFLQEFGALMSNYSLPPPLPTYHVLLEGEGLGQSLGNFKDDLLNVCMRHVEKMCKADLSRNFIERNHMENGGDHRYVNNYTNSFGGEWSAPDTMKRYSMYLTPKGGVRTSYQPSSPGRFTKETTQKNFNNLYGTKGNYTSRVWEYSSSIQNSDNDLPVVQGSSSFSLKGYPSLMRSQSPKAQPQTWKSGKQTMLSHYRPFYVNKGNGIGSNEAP
The test can be described thus: ITDRF in A431 cells, TRIM29. It is filed as binding. The following applies: FIG. 12. The source says: It was verified whether the oxopiperazine derivative of the present invention was bound to STING among STING and TRIM29 to inhibit interaction thereof, based on the compound of Formula 1, by the cellular thermal shift assay (CETSA) and the isothermal dose response fingerprint (ITDRF) which were major technologies for verifying the interaction between small molecule compounds and target proteins. (D. M. Molinaetal., Science 2013, 341, 84-87.)
To verify the target of the compound of Formula 1 using the CETSA technique, the human A431 cell lines and mouse Raw264.7 cell lines were seeded on a 100-mm or 150-mm culture dish and cultured for one day. […] Afterwards, centrifugation was performed at 20000 g for 20 minutes at 4° C., the supernatant was transferred to a new container, and each concentration was measured by using the Micro BCA™ protein assay kit (ThermoFisher) according to the protocol of the manufacturer. The concentration of each sample was equally adjusted by using the RIPA lysis buffer, the 5× SDS-PAGE loading buffer (Biosesang) was added according to the ratio of the manufacturer, and the resultant was treated at 95° C. for 5 minutes and analyzed by using the Western blotting method described above.

For another test, the system named is STING mRNA. Put plainly: qRT-PCR of STING mRNA in Raw264.7 cells. It is filed as cell-based, mouse. Particulars: FIG. 17. Background: Quantitative PCR measures a nucleic acid by following its amplification.
In the next test the test system is CT26 tumor. Put plainly: Tumor growth in CT26 in vivo syngeneic mouse model. Particulars: CT26, intratumoral, FIG. 23. Here is the method:
2×10^5 CT26 cell lines were prepared in 50 μL culture medium and subcutaneously injected. […] The cGAMP solution was manufactured with a final composition of PEG400:distilled water=40:60, and 20 μL was injected each time. The solution of the compound of Formula 1 was manufactured with the composition of DMSO:PEG400:distilled water=2:40:58, and 20 μL was injected each time. The cGAMP solution was injected once every two days, four times in total, and the solution of the compound of Formula 1 was injected once every four days, two times in total, starting with the second administration of cGAMP. The size of the tumor was measured by using calipers every two days, and the volume thereof was calculated as (length×width×height/2). The body weight of the mice was also measured every two days.

Where [1] appears, read: combination with cGAMP compared with the control group.

As to `COc1ccc(CC2=CN(c3ccc(C(=O)NC[C@H]4CCCO4)cc3[N+](=O)[O-])[C@H](C(C)C)C(=O)N2Cc2ccc(O)cc2)cc1` [Formula 1, 4-((R)-4-(4-hydroxybenzyl)-2-isopropyl-5-(4-methoxybenzyl)-3-oxo-3,4-dihydropyrazin-1 (2H)-yl)-3-nitro-N-(((R)-tetrahydrofuran-2-yl)methyl)benzamide], on TRIM29, the “ITDRF effect on TRIM29” value is reported as “without affecting TRIM29”. In addition, in the test on STING mRNA, the “relation of STING increase to RNA transcription (STING mRNA)” value is on record as “not related to RNA transcription”. Moreover, the tumor growth result is “inhibited in a concentration-dependent manner” in the test on CT26 tumor (combination with cGAMP compared with single treatment with cGAMP) and “inhibited” in the test on CT26 tumor (setting [1]). The “weight of the tumor extracted on the final day” value in the test with CT26 tumor (setting [1]) is listed as “reduced”.
